Data reported in patent publication US6924302B2, “Substituted triazole diamine derivatives as kinase inhibitors” (Ortho McNeil Pharmaceutical, Inc., priority 2000, dated 2005).
Read-outs that look alike come from different tables or passages of the source.

How the values were obtained:
[1] = target: T1, CDK2 in complex with cyclin A (Homo sapiens, UniProt P24941); test: Kinase Selectivity Assay CDK2; assay type: biochemical; conditions: Table 1
T1 construct: purchased Upstate Biotech
Description: (§1) Assays to test compound inhibition of other kinases were preformed using methods that measure the amount of phosphorylation of a biotinylated peptide substrate. Biotinylated peptide substrates were selected from the literature as appropriate for the enzyme being evaluated. […] Assay conditions vary slightly for each protein kinase, for example, insulin receptor kinase requires 10 mM MnCl2 for activity and Calmodulin-dependent protein kinase requires calmodulin and 10 mM CaCl2. These assay conditions are known in the art. The reaction mixture was dispensed into the wells of a streptavidin coated Flashplate and 1 μl drug stock in 100% DMSO was added to a 100 μl reaction volume resulting in a final concentration of 1% DMSO on the reaction. Enzyme was diluted in 50 mM Tris-HCl pH=8.0, 0.1% BSA and add to each well. The reaction was incubated for one hour at 30° C. in the presence of compound. After one hour the reaction mix was aspirated from the plate and the plate was washed with PBS containing 100 mM EDTA. The plate was read on a scintillation counter to determine ^33P-γ-ATP incorporated into the immobilized peptide. Test compounds were assayed in duplicate at 8 concentrations [100 uM, 10 uM, 1 uM, 100 nM, 10 nM, 1 nM, 100 pM, 10 pM]. A maximum and minimum signal for the assay was determined on each plate. The IC50 was calculated from the dose response curve of the percent inhibition of the maximum signal in the assay according to the formula [max signal—background/test compound signal—background (100)=% inhibition] by graphing the percent inhibition against the log concentration of test compound. Known inhibitor compounds appropriate for the kinase being assayed were also included on each plate.
(§2) CDK2 in complex with cyclin A is commercially available (Upstate Biotech, Lake Placid, N.Y.). The CDK4 complex was composed of a mouse CDK4 protein and a mouse Cyclin D1 protein (The mouse CDK4 protein was genetically fused to an N-terminal Flag-epitope tag and the mouse Cyclin D1 protein was fused with an N-terminal AU-1 epitope tag. The genes encoding these proteins were transferred to commercially available baculoviral vectors. The recombinant CDK4/D1 complex was then made by co-infecting commercially available insect cells with viruses carrying these two constructs). […] ERK-1 protein (Discontinued from Calbiochem). EGFR (epidermal growth factor receptor) is purified from human A431 cell membranes (Sigma, St. Louis, Mo., Cat.# E3641).

[2] = target: Insulin Receptor Kinase (Homo sapiens, UniProt P06213); test: Kinase Selectivity Assay Insulin Receptor Kinase; assay type: biochemical; conditions: Kinase Selectivity, Tables 2a-2k; read-out: Insulin R Kinase IC50
Description: as §1, §2

[3] = target: T2, Protein Kinase A (Bos taurus, UniProt P00517); test: Kinase Selectivity Assay Protein Kinase A; assay type: biochemical, bovine; conditions: Kinase Selectivity, Tables 2a-2k; read-out: PKA IC50
T2 construct: purified from bovine heart; purchased Upstate Biotech 14-114; host or cells: bovine heart
Description: as §1, §2

[4] = target: T3, Casein Kinase 1 (CK1 delta isoform) (Rattus norvegicus, UniProt Q06486); test: Kinase Selectivity Assay Casein Kinase 1; assay type: biochemical; conditions: Tables 2a-2k, read-out: Caseine Kinase 1 IC50
T3 construct: a truncation at amino acid 318 of the C-terminal portion of the rat CK1 delta isoform; purchased New England Biolabs 6030; host or cells: E. coli
T3 sequence (Q06486 1-317): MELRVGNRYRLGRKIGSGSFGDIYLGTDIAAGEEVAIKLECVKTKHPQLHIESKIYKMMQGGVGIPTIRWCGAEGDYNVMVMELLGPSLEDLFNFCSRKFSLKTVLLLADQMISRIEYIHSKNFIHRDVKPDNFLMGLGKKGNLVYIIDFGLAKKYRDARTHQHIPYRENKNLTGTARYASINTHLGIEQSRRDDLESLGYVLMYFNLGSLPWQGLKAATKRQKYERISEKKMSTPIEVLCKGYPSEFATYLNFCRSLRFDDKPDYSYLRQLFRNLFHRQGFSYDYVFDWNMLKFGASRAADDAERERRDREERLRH
Description: as §1, §2

[5] = target: T4, Casein Kinase 2 (alpha and beta subunits) (Homo sapiens, UniProt P68400); test: Kinase Selectivity Assay Casein Kinase 2; assay type: biochemical; conditions: Kinase Selectivity, Tables 2a-2k; read-out: Caseine Kinase 2 IC50
T4 construct: purchased New England Biolabs 6010; host or cells: E. coli
Description: as §1, §2

[6] = target: T5, Calmodulin Kinase (calmodulin-dependent protein kinase 2) (Rattus norvegicus, UniProt P11275); test: Kinase Selectivity Assay Calmodulin Kinase; assay type: biochemical; conditions: Kinase Selectivity, Tables 2a-2k; read-out: Calmodulin Kinase 2 IC50
T5 construct: a truncated version of the alpha subunit of the rat protein; purchased New England Biolabs 6060; host or cells: insect cells
Description: as §1, §2

[7] = target: T6, Glycogen Synthase Kinase-3 (beta isoform) (Oryctolagus cuniculus, UniProt G1T8E2); test: Kinase Selectivity Assay Glycogen Synthase Kinase-3; assay type: biochemical, rabbit; conditions: Kinase Selectivity, Tables 2a-2k; read-out: GSK-3 IC50
T6 construct: purchased New England Biolabs 6040; host or cells: E. coli
Description: as §1, §2

[8] = target: T7, MAP Kinase (ERK-2 isoform) (Rattus norvegicus, UniProt P63086); test: Kinase Selectivity Assay MAP Kinase (ERK-2); assay type: biochemical; conditions: Kinase Selectivity, Tables 2a-2k; read-out: ERK 2 IC50
T7 construct: polyhistidine (N); host or cells: E. coli
Description: as §1, §2

[9] = target: T8, PDGF-R (platelet derived growth factor receptor) beta subunit kinase domain (Homo sapiens, UniProt P09619); test: Kinase Selectivity Assay PDGF-R; assay type: biochemical; conditions: Kinase Selectivity, Tables 2a-2k; read-out: PDGF-R kinase IC50
T8 construct: nucleotides 1874-3507 of the human PDGF-R beta subunit kinase domain; polyhistidine (N)
Description: as §1, §2

[10] = test system: HeLa cervical adenocarcinoma; test: Inhibition of Cell Proliferation (14C-thymidine incorporation), HeLa; assay type: cell-based; conditions: Homo sapiens, HeLa cell line
Description: (§3) The ability of a test compound to inhibit the proliferation of cell growth was determined by measuring incorporation of ^14C-labelled thymidine into newly synthesized DNA within the cells. This method was used on cell lines derived from carcinomas originating from several tissues such as HeLa cervical adenocarcinoma (American Type Culture Collection (ATCC), Virginia, Cat. #CCL-2), A375 malignant melanoma (ATCC CRL-1619), SK-OV-3 ovarian adenocarcinoma (ATCC HTB-77) HCT-116 colon carcinoma (CCL-247), PC-3 prostate adenocarcinoma (ATCC CRL-1435), and MDA-MB-231 (Xenogen Corp.) In this way the effect of a compound on cell growth of cells with many different phenotypes can be determined. Cells were trypsinized and counted and 3000-8000 cells were added to each well of a 96-well CytoStar tissue culture treated scintillating microplate (Amersham #RPNQ0160) in complete medium in a volume of 100 μl. Cells were incubated for 24 hours in complete medium at 37° C. in an atmosphere containing 5% CO2. Next, 1 μl of test compound in 100% DMSO was added to the wells of the plate. DMSO only was added to control wells. Cells were incubated for 24 more hours in complete medium at 37° C. in an atmosphere containing 5% CO2. Methyl ^14C-thymidine 56 mCi/mmol (NEN #NEC568 or Amersham #CFA532) was diluted in complete medium and 0.2 uCi/well was added to each well of the CytoStar plate in a volume of 20 μl. The plate was incubated for 24 hours at 37° C. plus 5% CO2 in drug plus ^14C-thymidine. The contents of the plate were discarded into a ^14C radioactive waste container by inverting the plate and the plate was washed twice with 200 μl PBS. 200 μl of PBS is added to each well. The top of the plate was sealed with a transparent plate sealer and a white plate backing sealer (Packard #6005199) was applied to the bottom of the plate. The degree of methyl ^14C-thymidine incorporation was quantified on a Packard Top Count.

[11] = test system: A375 malignant melanoma; test: Inhibition of Cell Proliferation (14C-thymidine incorporation), A375; assay type: cell-based; conditions: Homo sapiens, A-375, A375 cell line
Description: as §3

[12] = test system: HCT-116 colon carcinoma; test: Inhibition of Cell Proliferation (14C-thymidine incorporation), HCT-116; assay type: cell-based; conditions: Homo sapiens, HCT-116 cell line
Description: as §3

[13] = target: FGF-R2 (Homo sapiens, UniProt P21802); test: Kinase Selectivity Assay FGF-R2; assay type: biochemical; conditions: Tables 2a-2k
Description: as §1

[14] = test system: PC-3 prostate adenocarcinoma; test: Inhibition of Cell Proliferation (14C-thymidine incorporation), PC-3; assay type: cell-based; conditions: Homo sapiens, PC-3 cell line
Description: as §3

[15] = target: T9, HER2 (human epidermal growth factor receptor-2) (Homo sapiens, UniProt P04626); test: Kinase Selectivity Assay HER2; assay type: biochemical
T9 construct: begins at amino acid 676 followed by the remainder of the HER2 cytoplasmic domain; polyhistidine (N)
How it was run: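 Reactions ran one hour at 30° C in 1% DMSO with enzyme diluted in 50 mM Tris-HCl pH 8.0, 0.1% BSA. Scintillation counting read ^33P incorporated into immobilized biotinylated peptide.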

[16] = target: PKC (protein kinase-C), gamma or beta isoform; test: Kinase Selectivity Assay PKC; assay type: biochemical, human; conditions: Tables 2a-2k
Description: as §1
CDK2 in complex with cyclin A is commercially available (Upstate Biotech, Lake Placid, N.Y.). […]

[17] = Kinase Selectivity, Tables 2a-2k, read-out: HER2 Kinase IC50

Chain of FGF-R2 (P21802 22-821, species assumed): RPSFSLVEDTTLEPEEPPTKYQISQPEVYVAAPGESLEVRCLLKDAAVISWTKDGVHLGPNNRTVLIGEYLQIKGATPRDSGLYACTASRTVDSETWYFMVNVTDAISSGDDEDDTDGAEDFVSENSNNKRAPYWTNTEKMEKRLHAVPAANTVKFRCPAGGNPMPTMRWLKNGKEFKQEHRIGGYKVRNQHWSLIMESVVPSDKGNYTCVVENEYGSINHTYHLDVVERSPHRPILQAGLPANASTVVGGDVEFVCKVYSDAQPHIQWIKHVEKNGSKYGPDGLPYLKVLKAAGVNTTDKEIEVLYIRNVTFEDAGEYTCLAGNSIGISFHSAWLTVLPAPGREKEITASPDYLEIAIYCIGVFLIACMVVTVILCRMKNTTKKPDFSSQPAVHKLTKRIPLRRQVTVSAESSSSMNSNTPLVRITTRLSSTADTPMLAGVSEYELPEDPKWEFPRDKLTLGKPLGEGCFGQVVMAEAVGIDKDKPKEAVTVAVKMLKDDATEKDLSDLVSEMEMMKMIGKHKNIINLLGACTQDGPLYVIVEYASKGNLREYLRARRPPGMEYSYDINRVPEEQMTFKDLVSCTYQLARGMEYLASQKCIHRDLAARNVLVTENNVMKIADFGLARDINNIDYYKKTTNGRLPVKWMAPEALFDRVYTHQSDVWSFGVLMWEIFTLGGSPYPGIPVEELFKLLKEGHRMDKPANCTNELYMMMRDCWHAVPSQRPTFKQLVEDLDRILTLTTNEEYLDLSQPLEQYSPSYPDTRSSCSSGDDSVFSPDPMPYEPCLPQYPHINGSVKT
T6 sequence (G1T8E2 1-432): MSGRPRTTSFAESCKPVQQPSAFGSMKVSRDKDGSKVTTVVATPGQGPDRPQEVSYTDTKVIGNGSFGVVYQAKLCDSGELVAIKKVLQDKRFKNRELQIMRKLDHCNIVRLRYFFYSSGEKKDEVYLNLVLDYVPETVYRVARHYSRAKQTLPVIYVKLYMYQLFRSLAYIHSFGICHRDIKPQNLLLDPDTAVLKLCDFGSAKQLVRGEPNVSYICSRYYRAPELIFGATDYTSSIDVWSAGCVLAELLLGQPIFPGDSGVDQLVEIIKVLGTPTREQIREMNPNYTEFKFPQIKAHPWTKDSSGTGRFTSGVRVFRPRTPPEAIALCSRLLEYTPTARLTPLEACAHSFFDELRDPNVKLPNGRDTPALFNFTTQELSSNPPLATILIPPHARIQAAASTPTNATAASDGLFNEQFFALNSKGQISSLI
T4 sequence (P68400 whole entry): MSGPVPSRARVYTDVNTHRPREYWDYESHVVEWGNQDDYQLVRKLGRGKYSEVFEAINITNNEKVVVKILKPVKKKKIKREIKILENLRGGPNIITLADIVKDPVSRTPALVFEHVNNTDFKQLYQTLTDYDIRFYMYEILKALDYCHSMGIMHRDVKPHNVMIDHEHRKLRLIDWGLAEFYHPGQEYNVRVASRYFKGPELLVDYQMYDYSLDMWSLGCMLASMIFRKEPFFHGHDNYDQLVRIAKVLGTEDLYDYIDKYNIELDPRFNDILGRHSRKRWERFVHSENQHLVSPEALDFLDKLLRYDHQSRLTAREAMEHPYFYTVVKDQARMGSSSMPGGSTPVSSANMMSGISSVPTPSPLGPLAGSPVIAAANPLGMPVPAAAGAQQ
T4 sequence (P67870 whole entry partner): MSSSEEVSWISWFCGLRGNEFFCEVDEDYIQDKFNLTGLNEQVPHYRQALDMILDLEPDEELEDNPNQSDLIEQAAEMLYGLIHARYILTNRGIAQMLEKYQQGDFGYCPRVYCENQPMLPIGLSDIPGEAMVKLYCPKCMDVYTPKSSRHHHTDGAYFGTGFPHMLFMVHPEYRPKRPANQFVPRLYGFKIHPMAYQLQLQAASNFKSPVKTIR
T9 sequence (P04626 676-1255 limits assumed): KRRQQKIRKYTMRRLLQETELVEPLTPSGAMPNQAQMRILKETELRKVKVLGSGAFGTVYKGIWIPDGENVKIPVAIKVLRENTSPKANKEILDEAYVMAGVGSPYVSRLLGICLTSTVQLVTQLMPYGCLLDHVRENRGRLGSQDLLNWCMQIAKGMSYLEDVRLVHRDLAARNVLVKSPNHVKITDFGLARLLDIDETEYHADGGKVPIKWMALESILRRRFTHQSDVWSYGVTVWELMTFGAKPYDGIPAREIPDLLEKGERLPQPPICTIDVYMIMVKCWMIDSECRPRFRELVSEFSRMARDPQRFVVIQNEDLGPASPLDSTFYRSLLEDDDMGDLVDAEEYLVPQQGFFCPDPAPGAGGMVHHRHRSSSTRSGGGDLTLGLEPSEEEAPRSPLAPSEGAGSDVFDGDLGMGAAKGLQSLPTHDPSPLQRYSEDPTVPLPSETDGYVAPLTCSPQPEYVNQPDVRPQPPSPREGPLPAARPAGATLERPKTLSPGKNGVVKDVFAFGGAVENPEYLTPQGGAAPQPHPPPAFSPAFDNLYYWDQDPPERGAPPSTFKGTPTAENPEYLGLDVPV
Chain of Insulin Receptor Kinase (P06213 980-1352): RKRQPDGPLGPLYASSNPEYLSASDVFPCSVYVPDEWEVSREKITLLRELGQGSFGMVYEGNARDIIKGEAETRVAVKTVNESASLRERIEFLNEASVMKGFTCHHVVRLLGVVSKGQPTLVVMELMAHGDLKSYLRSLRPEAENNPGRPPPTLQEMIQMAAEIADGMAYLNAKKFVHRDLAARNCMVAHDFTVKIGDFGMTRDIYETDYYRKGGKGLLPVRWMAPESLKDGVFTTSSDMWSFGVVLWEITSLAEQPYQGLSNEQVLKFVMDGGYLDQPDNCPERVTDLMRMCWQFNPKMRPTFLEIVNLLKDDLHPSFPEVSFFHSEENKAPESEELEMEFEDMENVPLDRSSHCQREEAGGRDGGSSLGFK
T8 sequence (P09619 564-1106): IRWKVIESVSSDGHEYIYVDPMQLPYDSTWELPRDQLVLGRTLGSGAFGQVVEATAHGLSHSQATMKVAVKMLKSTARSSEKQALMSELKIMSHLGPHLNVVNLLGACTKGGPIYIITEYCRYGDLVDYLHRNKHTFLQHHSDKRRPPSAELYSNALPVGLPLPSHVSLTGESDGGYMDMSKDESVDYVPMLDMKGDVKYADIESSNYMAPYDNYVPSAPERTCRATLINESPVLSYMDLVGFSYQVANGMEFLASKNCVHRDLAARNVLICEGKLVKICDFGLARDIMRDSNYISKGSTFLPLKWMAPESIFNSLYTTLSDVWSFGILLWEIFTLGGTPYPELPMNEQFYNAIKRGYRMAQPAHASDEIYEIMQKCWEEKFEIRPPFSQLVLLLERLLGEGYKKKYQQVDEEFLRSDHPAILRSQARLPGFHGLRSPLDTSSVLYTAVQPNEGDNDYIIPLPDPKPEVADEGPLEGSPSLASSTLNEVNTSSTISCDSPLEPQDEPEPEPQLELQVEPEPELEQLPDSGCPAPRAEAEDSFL
T7 sequence (P63086 whole entry, canonical isoform): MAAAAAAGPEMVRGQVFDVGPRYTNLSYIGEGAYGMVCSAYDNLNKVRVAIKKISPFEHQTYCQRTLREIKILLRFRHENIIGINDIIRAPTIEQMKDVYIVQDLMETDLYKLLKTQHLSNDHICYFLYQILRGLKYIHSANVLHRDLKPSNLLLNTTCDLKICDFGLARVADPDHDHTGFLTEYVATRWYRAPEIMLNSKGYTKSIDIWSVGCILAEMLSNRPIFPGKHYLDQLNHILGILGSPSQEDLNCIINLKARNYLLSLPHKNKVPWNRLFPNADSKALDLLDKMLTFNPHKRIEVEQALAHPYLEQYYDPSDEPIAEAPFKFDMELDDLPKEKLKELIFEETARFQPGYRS

Row | SMILES | IC50 [1] [nM] | IC50 [2] [nM] | IC50 [3] [µM] | IC50 [4] [nM] | IC50 [5] [µM] | IC50 [6] [µM] | IC50 [7] [nM] | IC50 [8] [µM] | IC50 [9] [nM] | IC50 [10] [nM] | IC50 [11] [nM] | IC50 [12] [nM] | IC50 [13] [nM] | IC50 [14] [nM] | IC50 [15, 17] [nM] | IC50 ([15]; Table 1, read-out: HER2 IC50) [nM] | IC50 [16] [µM]
1 | Cc1cc(C)c(C(=O)n2nc(Nc3ccc(S(=O)(=O)NCCN(C)C)cc3)nc2N)s1 [Cpd 107] | 2 | 311 | > 100 | 412 | > 10 | 3.43 | 15 | > 10 | 143 | 177 | 113 | 95 | 235 | – | – | – | –
2 | Cc1ccsc1C(=O)n1nc(Nc2ccc(NS(C)(=O)=O)cc2)nc1N [Cpd 109] | 21 | 2760 | > 100 | 1180 | > 10 | > 100 | 39 | > 10 | 413 | 479 | – | 51 | 244 | 307 | – | – | –
3 | CCc1ccc(C(=O)n2nc(Nc3ccc(NS(C)(=O)=O)cc3)nc2N)s1 [Cpd 110] | 5 | 53 | > 100 | 192 | > 5 | > 100 | 8 | 8.75 | 285 | 237 | 239 | 187 | 153 | – | 6 | 5.5 | –
4 | CCc1ccc(C(=O)n2nc(Nc3ccc(S(=O)(=O)Nc4ccccn4)cc3)nc2N)s1 [Cpd 119] | 3 | – | > 100 | 757 | > 100 | > 100 | 6 | > 100 | > 10000 | – | – | – | – | – | 1000 | ~1000 | > 100
